Where two headings read alike, the source gives them in different places. *1 amine or outer side, *2 acyl side, *3 side chain or, on linkers, in order; H or OH if unused. Where a SMILES comes first, the peptide text is derived from it. Bridges are numbered along the chain shown (N, C = ends). Roman numbers before positions name the chains, in order. [ ]: non-standard residue; d: D form. Actinocin(9to1) = Cc1c2oc3c(C)ccc(C(=O)[*:1])c3nc-2c(C(=O)[*:2])c(N)c1=O; NMeV = CN[C@H](C(=O)O)C(C)C; Sar = CNCC(=O)O
Tests used:
[1] = test system: P-gp; conditions: cited from earlier work
[2] = N = 3, UPLC-MS/MS; for Freeze-and-thaw stability, accuracy: plasma, three freeze-and-thaw cycles separated by at least 24 h
Method: Accuracy was calculated as the percentage of the ratio of the mean determined concentration in individual analytical runs and the nominal value. Precision was expressed in percent and is defined as the coefficient of variation of the measured sample concentrations at each QC level. Three validation runs were analyzed, each containing eight calibration samples in duplicate determination and four QC samples at LLOQ, and low, mid, and high QC concentration in six replicates. Selectivity was evaluated using blank plasma samples from six naïve mice and brain tissue homogenates from two mice. Extraction recovery was calculated from peak areas after extraction from the QC samples divided by the respective peak areas obtained from blank plasma spiked after extraction. Matrix effects were evaluated by comparison of the peak areas of the blank plasma samples spiked after extraction with the respective peak areas of matrix-free UPLC solvent samples spiked with the identical amount. Stability of the analyte was tested in three freeze-and-thaw cycles separated by at least 24 h, in plasma samples stored for 1 month at −25 °C, in microdialysate stored at room temperature for 2 d, and in extracts left in the autosampler for 24 h. Additionally, an incurred sample reanalysis was performed for all plasma samples with sufficient volume for reanalysis.

[3] = Non-specific binding to microdialysis equipment; assay type: physicochemical; conditions: in vitro; polypropylene sampling tubes; reduced by BSA ≥1% in Ringer solution
Method: In preparation of the cerebral microdialysis, we first investigated the adsorption and recovery characteristics of the microdialysis probes, tubing, and pump system, to test the validity of the microdialysis determinations. […] In order to reduce nonspecific binding, BSA supplement of the microdialysis buffer was tested in different concentrations, ranging from 0.1 to 2%. […] Therefore, 1% BSA in Ringer solution was used for all microdialysis experiments.

[4] = test system: LLC-PK1 cells; conditions: read-out: IC50 (proliferation); LLC-PK1 parental cells; four experiments, each concentration in octuplet; ten concentrations 0.0005–10 µM; sigmoid Emax model
Method: (§1) To confirm the P-gp substrate characteristics of actinomycin D, we conducted growth inhibition and uptake assays in a cell line over-expressing human P-gp/ABCB1 (L-MDR1 cells) in comparison to the respective parental cell line (LLC-PK1). L-MDR1 cells were kindly provided by A. H. Schinkel (The Netherlands Cancer Institute, Division of Experimental Therapy, Amsterdam, The Netherlands). The cells were cultured under standard cell culture conditions with medium M199 supplemented with 10% FCS, 2 mM glutamine, 100 U/mL penicillin, and 100 µg/mL streptomycin sulfate. The culture medium for L-MDR1 was supplemented with 0.64 µM vincristine to maintain P-gp/ABCB1 expression. One day before using the cells in the assays, both cell lines were fed with vincristine-free culture medium.
(§2) The assays were performed in quadruplicate, as described previously, using ten concentrations of actinomycin D from 0.0005–10 µM in octuplets.
(§3) Calibration curves were determined with 1/x^2 weighted linear regression using peak area ratios of the analyte to IS. This calculation was performed using the software TargetLynx V4.2 (Waters, Milford, MA, USA). Plasma pharmacokinetics were determined with the software Kinetica (v 5.0; Thermo Fisher Scientific, Waltham, MA, USA). Standard calculations were performed using Microsoft Office Excel 2010 ([…]). Concentration–response curves and IC50 values were calculated by GraphPad Prism version 9.0.0 (GraphPad Software Inc., La Jolla, CA, USA) according to a sigmoid Emax model.

[5] = test system: L-MDR1 cells (over-expressing human P-gp/ABCB1); conditions: ratio of IC50 in P-gp over-expressing versus parental cells
Method: as §1, §2, §3

[6] = Method: as §1, §2, §3
[7] = female NSG mice, 0.5 mg/kg i.v. bolus, estimates; for Cmax: plasma at 0.75, 6, 22 h, UPLC-MS/MS; for t1/2 (half-life): plasma up to 22 h; for AUC (extrapolated to infinity): plasma
Method: (§5) The experiments were carried out in accordance with the European regulations for care and use of laboratory animals (2010/63/EU) under the German license number G-187/18 and the internal reference number DKFZ374, approved by the responsible regional council (Regierungspräsidium Karlsruhe, Germany). Female 8-week-old NSG mice (NOD.Cg-Prkdc^scid Il2rg^tm1Wjl/SzJ-NOD-SCID gamma-mice) with a weight of approximately 25 g were used for the studies. […] Mice received analgesia (metamizole) and anesthesia with isoflurane during surgery. […] Therefore, we chose to take blood samples 0.75, 6, and 22 h after intravenous bolus injection into the tail vein for the assay’s feasibility pharmacokinetic experiment. […] Full blood samples were transferred into citrate tubes (Sarstedt, Germany) and centrifuged at 1600× g for 10 min to generate plasma samples, which were stored at −80 °C until analysis. […] For validation of the UPLC-MS/MS quantification, blank plasma from 6 naïve mice was used and blank brain tissue was obtained from 2 unexposed mice.
(§6) For protein precipitation of plasma microsamples, an excess of ACN (50 µL) with 0.1% FA containing the IS was applied to an Impact® 96-well protein precipitation plate (Phenomenex, Torrance, CA, USA). Subsequently, 20 µL of the plasma samples were added and the plates sealed and shaken for 1 min. […] For protein depletion, samples were filtered into a 96-well collection plate (Waters, Milford, MA, USA) by applying positive pressure with a 96-well positive pressure unit (Waters, Milford, MA, USA) operated with air overpressure of 5 psi. After addition of 40 µL of water containing 0.1% FA, the collection plates were sealed, shaken, and extracts injected onto the UPLC system.

[8] = in vivo; conditions: female, mouse, plasma, iv, 0.5 mg/kg; for level at 6 h / level at 22 h: NSG (NOD.Cg-Prkdc^scid Il2rg^tm1Wjl/SzJ), plasma actinomycin D concentration, incurred sample reanalysis table
Method: as §5, §6

[9] = rapid equilibrium dialysis, 12 h, 37 °C
Method: (§4) To determine the previously unknown unbound fraction of actinomycin D in plasma and brain tissue homogenate, we performed rapid equilibrium dialysis (RED) in duplicate. For this, samples were spiked with drug solutions that were prepared in plasma or brain tissue homogenate to obtain minimally diluted samples (30 ng/mL for plasma and 30 ng/g for brain tissue). The free actinomycin D tissue fraction was also quantified in a pooled sample of brain tissue homogenates from the three mice euthanized 2 h after dosing. Determinations were performed on a RED apparatus (ThermoFisher Scientific, Waltham, MA, USA) according to the manufacturer´s instructions under gentle agitation for 12 h at 37 °C.

[10] = 7 months at −20 °C; cited from earlier work
[11] = two patients, three hours after intravenous administration; cited from earlier work
Description: However, in this earlier study, actinomycin D was quantified in cerebrospinal fluid three hours after intravenous administration, i.e., in a protein-poor compartment that is also separated from blood and tissue by active barriers. […] In a more recent study in m ...

[12] = in vitro; conditions: mouse, plasma
Method: as §4

For `Cc1c2oc3c(C)ccc(C(=O)N[C@@H]4C(=O)N[C@H](C(C)C)C(=O)N5CCC[C@H]5C(=O)N(C)CC(=O)N(C)[C@@H](C(C)C)C(=O)O[C@@H]4C)c3nc-2c(C(=O)N[C@@H]2C(=O)N[C@H](C(C)C)C(=O)N3CCC[C@H]3C(=O)N(C)CC(=O)N(C)[C@@H](C(C)C)C(=O)O[C@@H]2C)c(N)c1=O` [actinomycin D, Actinomycin D] (I: T[dV]P[Sar][NMeV] / II: T[dV]P[Sar][NMeV]; ester I:1-I:C, II:1-II:C; linker I:N-II:N via Actinocin(9to1)), the “brain exposure in P-gp knockout mice relative to wildtype mice” value [1] is listed as 2.3 fold, the “1-month plasma stability at -25 °C, accuracy” value (“1-month plasma stability” for short) ([2]; High QC 60.0 ng/mL) is listed as 100.7% and the “1-month plasma stability” value ([2]; Low QC 0.150 ng/mL) is listed as 95.6%. For the same compound, the “1-month plasma stability” value ([2]; Medium QC 3.00 ng/mL) was 98.3%, the “Freeze-and-thaw stability, accuracy” value ([2]; High QC 60.0 ng/mL) was 87.6% and the “Freeze-and-thaw stability, accuracy” value ([2]; Low QC 0.150 ng/mL) was 93.6%. For the same compound, the “Freeze-and-thaw stability, accuracy” value ([2]; Medium QC 3.00 ng/mL) was 92.0%, the “non-specific binding to microdialysis equipment” value [3] was “substantially adhered” and the IC50 [4] was 21 ± 6 nM. The “difference of IC50 L-MDR1 versus LLC-PK1” value [5] was over 100 fold, the IC50 [6] was 2400 ± 600 nM and the Cmax ([7]; mouse 1) was 22.6 ng/mL. The Cmax ([7]; mouse 2) was 14.6 ng/mL, the Cmax ([7]; mouse 3) was 10.3 ng/mL and the “t1/2 (half-life)” value ([7]; mouse 1) was 5.07 h. For the same compound, the “t1/2 (half-life)” value ([7]; mouse 2) was 6.14 h, the “t1/2 (half-life)” value ([7]; mouse 3) was 6.90 h and the “AUC (extrapolated to infinity)” value ([7]; mouse 1) was 171 ng·h/mL. For the same compound, the “AUC (extrapolated to infinity)” value ([7]; mouse 2) was 111 ng·h/mL, the “AUC (extrapolated to infinity)” value ([7]; mouse 3) was 101 ng·h/mL and the “Cl (clearance)” value ([7]; mouse 1) was 1.22 mL/min. The “Vss (volume of distribution)” value ([7]; mouse 1) was 0.53 L, the “Cl (clearance)” value ([7]; mouse 2) was 1.87 mL/min and the “Vss (volume of distribution)” value ([7]; mouse 2) was 0.98 L. The “Cl (clearance)” value ([7]; mouse 3) was 2.06 mL/min, the “Vss (volume of distribution)” value ([7]; mouse 3) was 1.23 L and the level at 6 h ([8]; incurred reanalysis, mouse # 6, sampling 6 h) was 1.17 ng/mL. The level at 22 h ([8]; incurred reanalysis, mouse # 6, sampling 22 h) was 1.16 ng/mL, the level at 6 h ([8]; incurred reanalysis, mouse # 7, sampling 6 h) was 5.23 ng/mL and the level at 22 h ([8]; incurred reanalysis, mouse # 7, sampling 22 h) was 5.17 ng/mL. The level at 6 h ([8]; original analysis, mouse # 6, sampling 6 h) was 1.31 ng/mL, the level at 22 h ([8]; original analysis, mouse # 6, sampling 22 h) was 1.36 ng/mL and the level at 6 h ([8]; original analysis, mouse # 7, sampling 6 h) was 5.51 ng/mL. For the same compound, the level at 22 h ([8]; original analysis, mouse # 7, sampling 22 h) was 4.48 ng/mL, the AUC(0-inf) ([8]; NSG) was 128 ± 31 ng·h/mL and the Cmax ([8]; NSG) was 15.8 ± 5.1 ng/mL. The Vd ([8]; NSG) was 1.1 ± 0.35 L, the half-life ([8]; NSG) was 6.04 ± 0.75 h and the “free fraction in spiked brain tissue homogenate” value ([9]; minimally diluted homogenate spiked at 30 ng/g, duplicate, UPLC-MS/MS) was 3.4%. For the same compound, the “free fraction in brain tissue homogenate of dosed mice” value ([9]; pooled homogenates of three mice 2 h after 0.5 mg/kg i.v., estimated from response values below LLOQ) was under 3%, the “long-term stability in human plasma” value [10] was “has already been demonstrated” and the “cerebrospinal fluid concentration relative to corresponding plasma concentration” value [11] was “approximately 10%”. The fraction unbound at 12 h, 30 ng/mL [12] was 0.231.

— paper PMC8466300, “Investigating the Central Nervous System Disposition of Actinomycin D: Implementation and Evaluation of Cerebral Microdialysis and Brain Tissue Measurements Supported by UPLC-MS/MS Quantification” (Pharmaceutics, 2021)
